Source: US20230085307A1, “PYRIDAZINONE COMPOUND AND HERBICIDE” (NISSAN CHEMICAL CORPORATION, priority 2019, published 2023)

How the values were obtained:
Type in all cases: in vivo
[1] = test system: transplanted rice; experiment: Test Example 1: effect on crop, application before weed generation under submerged conditions (Table 16, symbol a); details: amount of applied herbicide 320 g/ha
Outline: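 Alluvial soil was flooded to 4 cm depth, weed seeds were sown mixed and 2.5-leaf rice seedlings were transplanted. On sowing day, the compound's emulsion, diluted in water to a set dose, was applied to the water surface. Plants grew at 25–30 °C and were scored 0–5 after three weeks.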

[2] = test system: directly sowed rice; experiment: Test Example 3: effect on crop by foliage application, Wagner pot (Table 18, symbol b); details: amount of applied herbicide 320 g/ha
Outline: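 Plants were sown in alluvial soil held under 0.1–0.5 cm standing water and grown 14 days in a greenhouse at 25–30 °C. An emulsifiable formulation, water-diluted to the set dose, was then sprayed onto the foliage, and effects were scored three weeks later using previously defined criteria.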

[3] = test system: soybean; experiment: Test Example 4: effect on crop by soil treatment (Table 19, symbol d); details: amount of applied herbicide 320 g/ha
Outline: (§1)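 Seeds were sown in sterilized diluvial soil and covered with about 1.5 cm of soil. An emulsion formulation diluted with water to a predetermined herbicide amount was sprayed evenly onto the soil surface. Plants grew in a greenhouse at 25° C. to 30° C., and the effect was scored three weeks after application using criteria from an earlier test.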

[4] = test system: wheat; experiment: Test Example 4: effect on crop by soil treatment (Table 19, symbol e); details: amount of applied herbicide 320 g/ha
Outline: as §1

[5] = test system: beet; experiment: Test Example 4: effect on crop by soil treatment (Table 19, symbol f); details: amount of applied herbicide 320 g/ha
Outline: as §1

[6] = test system: rapeseed; experiment: Test Example 4: effect on crop by soil treatment (Table 19, symbol g); details: amount of applied herbicide 320 g/ha
Outline: as §1

[7] = test system: wheat; experiment: Test Example 5: effect on crop by foliage application, plastic box (Table 20, symbol e); details: 320 g/ha, three weeks after application
Outline: (§2)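 Plants sown in sterilized diluvial soil and grown 14 days in a greenhouse at 25° C to 30° C, then sprayed on the foliage with the compound's emulsion diluted in water to a predetermined herbicide amount. Injury to weeds and crops scored three weeks after application on a visual rating scale.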

[8] = test system: beet; experiment: Test Example 5: effect on crop by foliage application, plastic box (Table 20, symbol f); details: 320 g/ha, three weeks after application
Outline: as §2

[9] = test system: rapeseed; experiment: Test Example 5: effect on crop by foliage application, plastic box (Table 20, symbol g); details: 320 g/ha, three weeks after application
Outline: as §2

Q: How did the “Effect on crop, a: transplanted rice” value [1] turn out when COc1ccc(-c2oc3ccc(F)cc3c2-c2c(O)c(C)nn(C)c2=O)cc1 [Compound No. 9-020, 4-(5-fluoro-2-(4-methoxyphenyl)benzofuran-3-yl)-5-hydroxy-2,6-dimethylpyridazin-3(2H)-one] was run?
A: Its value is 0 (Herbicidal rate of 5% or less (almost no effect)).

Q: And the “Effect on crop b (directly sowed rice), foliage application” value [2]?
A: The value was 0 (Herbicidal rate of 5% or less (almost no effect)).

Q: And the “d: soybean, effect on crop grade” value [3]?
A: Its value is 0 (Herbicidal rate of 5% or less (almost no effect)).

Q: What about the “e: wheat, effect on crop grade” value [4] of the same compound?
A: The value was 2 (Herbicidal rate of 20% or more and less than 40%).

Q: And the “f: beet, effect on crop grade” value [5]?
A: The value was 4 (Herbicidal rate of 70% or more and less than 90%).

Q: And the “g: rapeseed, effect on crop grade” value [6]?
A: Its value is 5 (Herbicidal rate of 90% or more (almost completely withered)).

Q: And the “effect on crop wheat (e)” value [7]?
A: Its value is 3 (Herbicidal rate of 40% or more and less than 70%).

Q: What about the “effect on crop beet (f)” value [8] of the same compound?
A: Its value is 5 (Herbicidal rate of 90% or more (almost completely withered)).

Q: What about the “effect on crop rapeseed (g)” value [9] of the same compound?
A: The value was 5 (Herbicidal rate of 90% or more (almost completely withered)).
